Results reported in patent US20250034139A1, “AMINE COMPOUNDS HAVING ANTI-INFLAMMATORY, ANTIFUNGAL, ANTIPARASITIC, AND ANTICANCER ACTIVITY” (PHARMA CINQ, LLC, priority 2013, published 2025).
In brackets after ≈: the same amount, converted by molar mass. Several values for one entry are separate records, joined by “and”; a condition that tells them apart may be missing. Equal values may be shown once. Where a name gives a salt, the structure may show the parent alone. Read-outs that look alike come from different tables or passages of the source.

Assays:
[1] = tested on: Candida albicans strain 3153; assay: Example H: Candida albicans growth inhibition (OD 600 nm); type: cell-based; settings: for MIC: Candida albicans, 3153, 24 hrs at 30° C., YPD, XLfit, read-out: MIC (uM) (99% of inhibition of fungal growth); for IC50: Candida albicans, 3153, read-out: IC50 (uM) (50% inhibition of fungal growth), 24 hrs at 30° C., YPD, XLfit
In short: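 Growth inhibition computed as % versus DMSO control from OD600 after ~24 h at 30° C. Inoculum: washed overnight YPD culture of strain 3153 at 3.5×10^4 CFU/ml in YPD; final compound concentrations 0, 5, 10, 16, 22, 30, 40 μM, duplicate wells.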

[2] = tested on: Cryptococcus neoformans (serotype D); assay: Example K: Cryptococcus neoformans (serotype D) growth inhibition; type: cell-based; settings: Cryptococcus deneoformans; for IC50: read-out: IC50 (concentration for 50% of inhibition); for MIC: read-out: MIC (concentration for maximum-99% of inhibition)
[3] = tested on: 4T1 murine breast cancer cells; assay: Example S: in vitro anticancer screen, 4T1 cells, Wst1; type: cell-based, mouse; settings: Mus musculus, 4T1, 18 h, 18 hr, Wst1; for viability at 1 µM: read-out: 4T1 1 μM, percent of cancer cell survival relative to vehicle treated cells; for viability at 5 µM: read-out: 4T1 5 μM, percent of cancer cell survival relative to vehicle treated cells
In short: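 Read-out is Wst1 absorbance (450 nm, reference 630 nm) after roughly 2 hr dye incubation, giving percent cell survival versus vehicle. Before that, compounds at 1 μM or 5 μM were applied for 18 hr to 4T1 cells plated at 1×10^4 per well.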

THP-1 cells = assay: Example D: LPS-triggered THP-1 cell death assay, acute/5-hour and chronic/48-hour; type: cell-based, Human; settings: for Viable cell percent change, Chronic/48-hour, Mean: 10 ng/ml LPS, 0.1 μM test compound; for activity relative to AC in the LPS-triggered THP-1 cell death assay, in words: 0.1 μM, 5-hour and 48-hour time points
Experimental: Compounds of the invention were tested at 0.1 μM versus AC in the LPS-triggered THP-1 cell death assay. Both acute/5-hour and chronic/48-hour phases of cell death were assessed. Compounds were screened in batches with DMSO as the negative control and AC as the high activity control.

Trichophyton rubrum = assay: Example J: Trichophyton rubrum growth inhibition, scoring by eye; type: cell-based; settings: Trichophyton rubrum, 144 h; 6 days at 30° C., tested 6 to 40 μM; read-out: MIC, μM (maximum inhibition concentration, scoring by eye)
In short: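 Filtered T. rubrum suspension from PDA plates (grown 4 days, 30 °C) treated with diluted compounds in triplicate, incubated 6 days at 30 °C. Plates imaged; MIC scored by eye.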

[4] = OD of 48 hour reading, 37° C., tested 4 to 60 μM, XLfit

SMILES | MIC [1] | IC50 [1] | IC50 [2, 4] | MIC [2, 4] | viability at 1 µM [3] | viability at 5 µM [3] | Viable cell percent change, Chronic/48-hour, Mean (THP-1 cells) | activity relative to AC in the LPS-triggered THP-1 cell death assay, in words (THP-1 cells) | MIC (Trichophyton rubrum) | Viable cell percent change, Chronic/48-hour, Mean (THP-1 cells; 0.1 µM) | IC50 ([2]; 48 h)
CCCCCCOc1ccc(CNc2ccnc3ccccc23)cc1 [AA, N-[4-(Hexyloxy)benzyl]quinolin-4-amine] | 27.3 µM (≈ 9.13 µg/mL) | 11 µM | 3.34 µM | 40.5 µM (≈ 13.6 µg/mL) | 69.1% | 31.2% | – | – | – | – | –
COc1ccc(OCCCCCCCCNc2ncnc3ccccc23)cc1 [AE, N-[8-(4-Methoxyphenoxy)octyl]quinazolin-4-amine] | – | 7.82 µM | 0.53 µM | 6.99 µM (≈ 2.65 µg/mL) | – | – | 4.11% | equivalent activity to AC at both the 5-hour and 48-hour time points | 6 µM (≈ 2.28 µg/mL) | – | –
c1ccc(Oc2cccc(CNc3ccnc4ccccc34)c2)cc1 [AF, N-(3-Phenoxybenzyl)quinolin-4-amine] | 74.2 µM (≈ 24.2 µg/mL) | 45.5 µM | 5.18 µM | 55.9 µM (≈ 18.2 µg/mL) | 24.7% | 25.6% | 13.79% | more active than AC at the chronic/48-hour time point | > 40 µM | – | –
CCCCCCOc1cccc(CNc2ncnc3ccccc23)c1 [AK, N-[3-(Hexyloxy)benzyl]quinazolin-4-amine] | – | 10.7 µM | 0.85 µM | 24.6 µM (≈ 8.26 µg/mL) | – | – | – | equivalent activity to AC at both the 5-hour and 48-hour time points | 18 µM (≈ 6.04 µg/mL) | – | –
CCCCOCCCCCCCCCCNc1ccnc2ccccc12 [AM, N-(10-Butoxydecyl)quinolin-4-amine] | 16.2 µM (≈ 5.77 µg/mL) | 6.52 µM | 3.32 µM | 13.3 µM (≈ 4.75 µg/mL) | 24.3% | 29.5% | – | more active than AC at the chronic/48-hour time point | 12 µM (≈ 4.28 µg/mL) | – | –
CCCCCCOCCCCCCCCn1cnc2cnccc21 [AS, 1-[8-(Hexyloxy)octyl]-1H-imidazo[4,5-c]pyridine] | 37.8 µM (≈ 12.5 µg/mL) | 15.3 µM | 1.46 µM | 26.8 µM (≈ 8.89 µg/mL) | 94.6% | 23.1% | 3.86% | – | 25 µM (≈ 8.29 µg/mL) | – | –
CCCCOCCCCCCCCCCn1cnc2cnccc21 [AT, 1-(10-Butoxydecyl)-1H-imidazo[4,5-c]pyridine] | 51.2 µM (≈ 17 µg/mL) | 14.5 µM | 1.29 µM | 41.8 µM (≈ 13.9 µg/mL) | 31.7% | 18.7% | 30.34% | – | 6 µM (≈ 1.99 µg/mL) | – | –
CCCCCCOCCCCCCCCNc1ccncn1 [AU, N-[8-(Hexyloxy)octyl]pyrimidin-4-amine] | 30.9 µM (≈ 9.52 µg/mL) | 16.3 µM | 1.63 µM | 14.4 µM (≈ 4.42 µg/mL) | 93% | 23.2% | 16.86% | – | 12 µM (≈ 3.69 µg/mL) | – | –
CCCCCCOCCCCCCCCNc1cc(C)nc2ccccc12 [AV, N-[8-(Hexyloxy)octyl]-2-methylquinolin-4-amine] | 19.8 µM (≈ 7.34 µg/mL) | 13.4 µM | 5.12 µM | 22.9 µM (≈ 8.47 µg/mL) | 136% | 30% | 38.76% | – | 25 µM (≈ 9.26 µg/mL) | – | –
CCCCCCOCCCCCCCCNc1ccnc2cc(Cl)ccc12 [AW, 7-Chloro-N-[8-(hexyloxy)octyl]quinolin-4-amine] | 24.8 µM (≈ 9.7 µg/mL) | 13.3 µM | 0.9 µM | 8.73 µM (≈ 3.41 µg/mL) | 44.2% | 18% | – | – | 6 µM (≈ 2.35 µg/mL) | – | –
CCCCCCOc1cccc(OCCCNc2ccnc3ccccc23)c1 [AZ, N-{3-[3-(Hexyloxy)phenoxy]propyl}quinolin-4-amine] | 21.1 µM (≈ 7.99 µg/mL) | 10.4 µM | 2.01 µM | 15.8 µM (≈ 5.99 µg/mL) | 52.2% | 29.1% | 50.12% | – | 18 µM (≈ 6.81 µg/mL) | – | –
Cc1cccc(OCCCCCCCCNc2ccnc3ccccc23)c1 [BE, N-[8-(m-Tolyloxy)octyl]quinolin-4-amine] | 29.7 µM (≈ 10.8 µg/mL) | 12.2 µM | 3.45 µM | 13.2 µM (≈ 4.77 µg/mL) | 23.1% | 18.7% | 33.86% | – | 12 µM (≈ 4.35 µg/mL) | – | –
Cc1ccc(OCCCCCCCCNc2ccnc3ccccc23)cc1 [BF, N-[8-(p-Tolyloxy)octyl]quinolin-4-amine] | 26.9 µM (≈ 9.77 µg/mL) | 14.2 µM | – | – | 17.2% | 19% | 31.64% | – | 18 µM (≈ 6.53 µg/mL) | – | –
Cc1ccccc1OCCCCCCCCNc1ccnc2ccccc12 [BG, N-[8-(o-Tolyloxy)octyl]quinolin-4-amine] | 20.9 µM (≈ 7.56 µg/mL) | 11.5 µM | 2.13 µM | 12.5 µM (≈ 4.55 µg/mL) | 17.4% | 17.8% | – | – | 12 µM (≈ 4.35 µg/mL) | 38.39% and 31.07% | –
Fc1cccc(OCCCCCCCCNc2ccnc3ccccc23)c1 [BI, N-[8-(3-Fluorophenoxy)octyl]quinolin-4-amine] | 27.8 µM (≈ 10.2 µg/mL) | 17.5 µM | 2.23 µM | 19.6 µM (≈ 7.17 µg/mL) | 30% | 17.3% | 27.30% | – | 18 µM (≈ 6.6 µg/mL) | – | –
Fc1ccc(OCCCCCCCCNc2ccnc3ccccc23)cc1 [BJ, N-[8-(4-Fluorophenoxy)octyl]quinolin-4-amine] | 23.5 µM (≈ 8.6 µg/mL) | 13.3 µM | 1.86 µM | 18.5 µM (≈ 6.79 µg/mL) | 16.9% | 31.3% | 18.03% | – | 18 µM (≈ 6.6 µg/mL) | – | –
CCCCCCOc1ccc(CNc2ccnc3ccccc23)cc1F [BK, N-[3-Fluoro-4-(hexyloxy)benzyl]quinolin-4-amine] | 19 µM (≈ 6.71 µg/mL) | 11.2 µM | 2.44 µM | 16.5 µM (≈ 5.82 µg/mL) | – | – | 43.69% | equivalent activity to AC at both the 5-hour and 48-hour time points | – | – | –
c1ccc(Oc2cccc(CNc3ncnc4ccccc34)c2)cc1 [BM, N-(3-Phenoxybenzyl)quinazolin-4-amine] | 44.5 µM (≈ 14.6 µg/mL) | 20.2 µM | 0.72 µM | 22.6 µM (≈ 7.38 µg/mL) | – | – | 29.97% | more active than AC at the chronic/48-hour time point | 18 µM (≈ 5.89 µg/mL) | – | –
CCCCCCOCCCCCCCC[n+]1ccc(N)cc1 [BO, 4-Amino-1-[8-(hexyloxy)octyl]pyridinium salts] | 42.5 µM | 19 µM | 2 µM | 13.4 µM | 20.7% | 18.6% | 28.35% | – | > 40 µM | – | –
CCCCCCOc1cccc(CNc2ccnc3ccccc23)c1 [Compound AC, N-[3-(Hexyloxy)benzyl]quinolin-4-amine] | 108 µM (≈ 36 µg/mL) | 45.7 µM | – | 19.4 µM (≈ 6.49 µg/mL) | 23.3% | 19.3% | – | – | 18 µM (≈ 6.02 µg/mL) | – | 3.35 µM
CCCCCCCCCCNc1ccnc2ccccc12 [Compound AG, N-(Decyl)quinolin-4-amine] | 16 µM (≈ 4.55 µg/mL) | 8.92 µM | 1.78 µM | 17.6 µM (≈ 4.99 µg/mL) | – | – | – | more active than AC at the chronic/48-hour time point | 18 µM (≈ 5.12 µg/mL) | – | –
CCCCCCCCCCNc1ncnc2ccccc12 [Compound AH, N-(Decyl)quinazolin-4-amine] | 15.4 µM (≈ 4.4 µg/mL) | 5.24 µM | 0.76 µM | 9.54 µM (≈ 2.72 µg/mL) | – | – | – | more active than AC at the chronic/48-hour time point | 6 µM (≈ 1.71 µg/mL) | – | –
CCCCCCOCCCCCCCCCCNc1ccnc2ccccc12 [Compound AL, N-[10-(Hexyloxy)decyl]quinolin-4-amine] | 20.1 µM (≈ 7.72 µg/mL) | 7.08 µM | 1.88 µM | 11.5 µM (≈ 4.44 µg/mL) | 16.6% | 18.3% | 19.14% | equivalent activity to AC at both the 5-hour and 48-hour time points | 12 µM (≈ 4.62 µg/mL) | – | –
